Reference: the kinase profiling compilation of Christmann-Franck et al. (2016)

How the values were obtained:
Assay in all cases: KINOMEscan competition binding
Conditions in all cases: compound 10.0 µM
PAK4 (human) = PAK4 (human) (UniProt O96013)
ADCK3 (human) = ADCK3 (human) (UniProt Q8NI60)
MUSK (human) = MUSK (human) (UniProt O15146)
LATS2 (human) = LATS2 (human) (UniProt Q9NRM7)
CSNK1A1 (human) = CSNK1A1 (human) (UniProt P48729)
MAP2K5 (human) = MAP2K5 (human) (UniProt Q13163)
FGFR3 (human) = FGFR3 (human) (UniProt P22607)
RIPK4 (human) = RIPK4 (human) (UniProt P57078)
PRKACA (human) = PRKACA (human) (UniProt P17612)
CAMK2B (human) = CAMK2B (human) (UniProt Q13554)
MYO3B (human) = MYO3B (human) (UniProt Q8WXR4)
PLK2 (human) = PLK2 (human) (UniProt Q9NYY3)
TEC (human) = TEC (human) (UniProt P42680)
CDK16 (human) = CDK16 (human) (UniProt Q00536)
PLK1 (human) = PLK1 (human) (UniProt P53350)
FLT4 (human) = FLT4 (human) (UniProt P35916)
MYO3A (human) = MYO3A (human) (UniProt Q8NEV4)
[1] = tested on: FLT3 (human), P36888 [R834Q]
PRKACB (human) = PRKACB (human) (UniProt P22694)
YES1 (human) = YES1 (human) (UniProt P07947)
CDC2L2 (human) = CDC2L2 (human) (UniProt Q9UQ88)
CDK8 (human) = CDK8 (human) (UniProt P49336)
AURKA (human) = AURKA (human) (UniProt O14965)
TGFBR2 (human) = TGFBR2 (human) (UniProt P37173)
CLK2 (human) = CLK2 (human) (UniProt P49760)
BRSK1 (human) = BRSK1 (human) (UniProt Q8TDC3)
PRKCH (human) = PRKCH (human) (UniProt P24723)
SRC (human) = SRC (human) (UniProt P12931)
MAPK11 (human) = MAPK11 (human) (UniProt Q15759)
YSK4 (human) = YSK4 (human) (UniProt Q56UN5)
NTRK1 (human) = NTRK1 (human) (UniProt P04629)
DDR2 (human) = DDR2 (human) (UniProt Q16832)
TNIK (human) = TNIK (human) (UniProt Q9UKE5)
MAP2K7 (human) = MAP2K7 (human) (UniProt O14733)
STK24 (human) = STK24 (human) (UniProt Q9Y6E0)
TLK2 (human) = TLK2 (human) (UniProt Q86UE8)
FGFR4 (human) = FGFR4 (human) (UniProt P22455)
MAPK7 (human) = MAPK7 (human) (UniProt Q13164)
MYLK3 (human) = MYLK3 (human) (UniProt Q32MK0)
FER (human) = FER (human) (UniProt P16591)
STK3 (human) = STK3 (human) (UniProt Q13188)

Sequence of MYO3A (human) (Q8NEV4 whole entry, looked up): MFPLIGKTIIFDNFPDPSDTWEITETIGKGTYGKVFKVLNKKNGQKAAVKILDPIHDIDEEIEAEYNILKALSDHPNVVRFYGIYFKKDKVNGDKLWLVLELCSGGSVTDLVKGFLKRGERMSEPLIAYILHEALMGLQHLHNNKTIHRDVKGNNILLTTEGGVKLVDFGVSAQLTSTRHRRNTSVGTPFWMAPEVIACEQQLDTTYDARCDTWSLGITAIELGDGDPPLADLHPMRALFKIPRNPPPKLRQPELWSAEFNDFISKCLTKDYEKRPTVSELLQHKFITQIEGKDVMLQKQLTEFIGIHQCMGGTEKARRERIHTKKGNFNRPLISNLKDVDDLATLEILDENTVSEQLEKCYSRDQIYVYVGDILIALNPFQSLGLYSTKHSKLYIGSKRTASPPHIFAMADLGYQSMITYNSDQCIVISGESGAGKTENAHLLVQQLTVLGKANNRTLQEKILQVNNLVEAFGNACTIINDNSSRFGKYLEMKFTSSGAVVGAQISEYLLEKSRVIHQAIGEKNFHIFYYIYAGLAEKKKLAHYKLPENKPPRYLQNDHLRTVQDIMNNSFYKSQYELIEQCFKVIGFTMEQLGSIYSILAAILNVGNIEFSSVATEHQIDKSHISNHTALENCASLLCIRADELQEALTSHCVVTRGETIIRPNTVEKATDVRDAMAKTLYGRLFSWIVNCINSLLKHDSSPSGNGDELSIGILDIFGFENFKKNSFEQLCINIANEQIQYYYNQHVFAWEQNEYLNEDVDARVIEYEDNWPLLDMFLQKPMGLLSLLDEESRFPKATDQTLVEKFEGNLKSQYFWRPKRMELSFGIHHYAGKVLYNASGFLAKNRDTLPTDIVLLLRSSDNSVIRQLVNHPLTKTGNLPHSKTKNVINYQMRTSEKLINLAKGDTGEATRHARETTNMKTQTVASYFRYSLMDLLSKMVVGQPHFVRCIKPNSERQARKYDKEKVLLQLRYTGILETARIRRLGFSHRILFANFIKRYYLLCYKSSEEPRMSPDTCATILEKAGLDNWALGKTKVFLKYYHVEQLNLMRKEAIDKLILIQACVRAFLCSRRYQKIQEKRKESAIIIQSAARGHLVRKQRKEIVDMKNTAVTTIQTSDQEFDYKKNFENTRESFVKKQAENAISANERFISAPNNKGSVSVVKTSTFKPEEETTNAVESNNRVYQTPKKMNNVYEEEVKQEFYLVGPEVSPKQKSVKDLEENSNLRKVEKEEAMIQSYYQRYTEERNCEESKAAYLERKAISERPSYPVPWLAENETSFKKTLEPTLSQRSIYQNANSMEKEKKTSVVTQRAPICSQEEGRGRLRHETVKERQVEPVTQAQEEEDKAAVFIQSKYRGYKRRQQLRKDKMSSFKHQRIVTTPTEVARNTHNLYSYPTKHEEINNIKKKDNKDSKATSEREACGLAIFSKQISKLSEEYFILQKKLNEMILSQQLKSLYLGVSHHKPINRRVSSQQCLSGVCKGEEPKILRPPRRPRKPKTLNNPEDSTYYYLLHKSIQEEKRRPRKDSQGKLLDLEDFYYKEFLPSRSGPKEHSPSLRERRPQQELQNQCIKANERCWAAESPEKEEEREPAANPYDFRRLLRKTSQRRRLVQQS
Sequence of BRSK1 (human) (Q8TDC3 whole entry, looked up): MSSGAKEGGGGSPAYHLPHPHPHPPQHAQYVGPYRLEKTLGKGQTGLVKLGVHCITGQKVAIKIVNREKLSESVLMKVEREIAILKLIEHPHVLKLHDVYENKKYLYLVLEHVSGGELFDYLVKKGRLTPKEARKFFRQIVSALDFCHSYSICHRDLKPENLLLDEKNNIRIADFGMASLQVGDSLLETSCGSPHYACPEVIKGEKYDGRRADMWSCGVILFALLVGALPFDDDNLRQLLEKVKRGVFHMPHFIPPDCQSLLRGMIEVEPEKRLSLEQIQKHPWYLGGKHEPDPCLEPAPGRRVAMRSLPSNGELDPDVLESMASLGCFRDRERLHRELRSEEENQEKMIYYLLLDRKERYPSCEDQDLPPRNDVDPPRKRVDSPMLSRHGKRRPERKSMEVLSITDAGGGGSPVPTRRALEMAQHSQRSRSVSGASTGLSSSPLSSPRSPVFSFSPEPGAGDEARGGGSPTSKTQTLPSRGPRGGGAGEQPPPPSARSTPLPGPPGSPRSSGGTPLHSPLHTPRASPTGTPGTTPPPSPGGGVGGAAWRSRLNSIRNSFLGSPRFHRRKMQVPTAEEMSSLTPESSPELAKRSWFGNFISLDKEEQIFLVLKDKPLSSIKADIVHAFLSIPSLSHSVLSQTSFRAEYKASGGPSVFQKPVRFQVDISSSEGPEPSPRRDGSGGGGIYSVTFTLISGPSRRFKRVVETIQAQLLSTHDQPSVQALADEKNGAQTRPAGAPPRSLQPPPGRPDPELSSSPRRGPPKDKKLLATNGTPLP
Sequence of PLK2 (human) (Q9NYY3 whole entry, looked up): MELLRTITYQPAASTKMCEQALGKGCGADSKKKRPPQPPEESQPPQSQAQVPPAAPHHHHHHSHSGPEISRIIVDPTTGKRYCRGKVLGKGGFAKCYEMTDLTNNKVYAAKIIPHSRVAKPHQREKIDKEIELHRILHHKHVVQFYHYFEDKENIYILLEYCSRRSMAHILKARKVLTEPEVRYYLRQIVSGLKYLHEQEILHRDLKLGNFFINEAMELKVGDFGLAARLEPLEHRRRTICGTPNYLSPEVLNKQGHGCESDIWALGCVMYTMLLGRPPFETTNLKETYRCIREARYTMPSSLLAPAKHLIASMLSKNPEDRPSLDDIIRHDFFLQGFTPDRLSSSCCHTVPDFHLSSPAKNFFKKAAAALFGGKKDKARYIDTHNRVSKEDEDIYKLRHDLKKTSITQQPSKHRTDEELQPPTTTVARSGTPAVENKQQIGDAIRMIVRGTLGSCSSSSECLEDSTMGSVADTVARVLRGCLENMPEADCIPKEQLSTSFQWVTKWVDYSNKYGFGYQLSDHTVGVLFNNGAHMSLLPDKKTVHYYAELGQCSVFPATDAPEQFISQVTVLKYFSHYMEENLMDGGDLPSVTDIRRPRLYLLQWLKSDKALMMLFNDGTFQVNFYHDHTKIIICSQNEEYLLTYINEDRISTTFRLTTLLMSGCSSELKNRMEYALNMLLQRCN
Sequence of FGFR3 (human) (P22607 whole entry, looked up): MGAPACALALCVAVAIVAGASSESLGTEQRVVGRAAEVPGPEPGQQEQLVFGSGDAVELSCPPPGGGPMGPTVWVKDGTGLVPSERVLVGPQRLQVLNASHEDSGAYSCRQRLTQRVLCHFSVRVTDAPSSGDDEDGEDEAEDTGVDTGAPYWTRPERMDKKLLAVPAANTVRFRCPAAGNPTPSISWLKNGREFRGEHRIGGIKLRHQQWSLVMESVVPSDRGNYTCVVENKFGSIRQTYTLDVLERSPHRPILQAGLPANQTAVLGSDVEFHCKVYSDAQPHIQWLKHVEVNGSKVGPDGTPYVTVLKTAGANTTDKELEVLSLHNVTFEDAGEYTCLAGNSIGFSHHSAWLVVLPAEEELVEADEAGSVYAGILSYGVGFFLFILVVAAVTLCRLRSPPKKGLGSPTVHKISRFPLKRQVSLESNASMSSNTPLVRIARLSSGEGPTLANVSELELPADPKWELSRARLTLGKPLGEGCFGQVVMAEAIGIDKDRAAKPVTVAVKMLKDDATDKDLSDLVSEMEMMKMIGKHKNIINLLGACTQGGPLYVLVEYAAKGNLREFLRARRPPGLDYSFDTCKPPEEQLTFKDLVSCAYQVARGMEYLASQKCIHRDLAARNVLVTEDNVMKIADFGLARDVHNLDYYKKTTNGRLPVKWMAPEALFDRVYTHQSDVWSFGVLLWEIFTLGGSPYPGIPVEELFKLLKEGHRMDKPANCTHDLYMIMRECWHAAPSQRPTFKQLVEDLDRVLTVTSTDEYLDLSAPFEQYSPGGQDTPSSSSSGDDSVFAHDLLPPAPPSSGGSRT
Sequence of CDK8 (human) (P49336 whole entry, looked up): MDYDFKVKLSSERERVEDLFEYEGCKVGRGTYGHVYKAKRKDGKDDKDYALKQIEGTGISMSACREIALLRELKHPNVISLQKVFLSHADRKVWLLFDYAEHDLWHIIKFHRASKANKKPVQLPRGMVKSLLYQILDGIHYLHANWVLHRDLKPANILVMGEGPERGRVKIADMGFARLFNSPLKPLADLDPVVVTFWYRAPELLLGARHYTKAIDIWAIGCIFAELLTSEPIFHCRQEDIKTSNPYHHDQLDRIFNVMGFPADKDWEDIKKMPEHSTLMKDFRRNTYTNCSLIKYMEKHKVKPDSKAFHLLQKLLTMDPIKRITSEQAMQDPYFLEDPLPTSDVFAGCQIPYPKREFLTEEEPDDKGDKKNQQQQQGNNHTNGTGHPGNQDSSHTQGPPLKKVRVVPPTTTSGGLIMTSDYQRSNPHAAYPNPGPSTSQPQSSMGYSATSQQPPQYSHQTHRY
Sequence of MAPK11 (human) (Q15759 whole entry, looked up): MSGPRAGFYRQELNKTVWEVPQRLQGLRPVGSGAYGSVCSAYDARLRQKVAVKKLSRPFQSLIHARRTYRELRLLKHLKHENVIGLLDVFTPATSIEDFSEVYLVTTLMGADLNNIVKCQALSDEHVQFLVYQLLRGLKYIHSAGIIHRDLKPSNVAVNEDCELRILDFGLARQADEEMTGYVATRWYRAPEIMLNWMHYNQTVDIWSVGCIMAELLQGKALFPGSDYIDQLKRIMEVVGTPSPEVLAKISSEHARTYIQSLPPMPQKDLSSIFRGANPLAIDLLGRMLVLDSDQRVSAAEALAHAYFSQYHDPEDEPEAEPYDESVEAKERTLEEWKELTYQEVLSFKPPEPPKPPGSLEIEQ
Sequence of CSNK1A1 (human) (P48729 whole entry, looked up): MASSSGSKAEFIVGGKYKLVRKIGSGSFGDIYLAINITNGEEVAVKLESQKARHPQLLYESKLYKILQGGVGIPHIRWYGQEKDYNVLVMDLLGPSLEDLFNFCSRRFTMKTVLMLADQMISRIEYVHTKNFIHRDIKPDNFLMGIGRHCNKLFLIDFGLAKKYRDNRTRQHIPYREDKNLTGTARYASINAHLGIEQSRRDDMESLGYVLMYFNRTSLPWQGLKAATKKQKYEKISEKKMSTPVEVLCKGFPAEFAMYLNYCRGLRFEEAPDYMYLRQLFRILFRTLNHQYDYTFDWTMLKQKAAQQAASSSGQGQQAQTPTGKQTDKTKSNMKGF

Row | SMILES | kinase still bound, per cent of control (PAK4 (human)) [%] | kinase still bound, per cent of control (ADCK3 (human)) [%] | kinase still bound, per cent of control (MUSK (human)) [%] | kinase still bound, per cent of control (LATS2 (human)) [%] | kinase still bound, per cent of control (FGFR3 (human)) [%] | kinase still bound, per cent of control (RIPK4 (human)) [%] | kinase still bound, per cent of control (PRKACA (human)) [%] | kinase still bound, per cent of control (MYO3B (human)) [%] | kinase still bound, per cent of control (PLK2 (human)) [%] | kinase still bound, per cent of control (TEC (human)) [%] | kinase still bound, per cent of control (CDK16 (human)) [%] | kinase still bound, per cent of control (PLK1 (human)) [%] | kinase still bound, per cent of control (FLT4 (human)) [%] | kinase still bound, per cent of control (MYO3A (human)) [%] | kinase still bound, per cent of control (PRKACB (human)) [%] | kinase still bound, per cent of control (YES1 (human)) [%] | kinase still bound, per cent of control (CDC2L2 (human)) [%] | kinase still bound, per cent of control (CDK8 (human)) [%] | kinase still bound, per cent of control (TGFBR2 (human)) [%] | kinase still bound, per cent of control (CLK2 (human)) [%] | further results
1 | NC(=O)Nc1cc(-c2cccc(F)c2)sc1C(=O)N[C@@H]1CCCNC1 | 1.2 | 93 | 18 | 2 | 16 | 0 | 1.4 | 8.2 | 40 | 0.4 | 79 | 33 | 0 | 4.2 | 1.8 | 0.2 | 100 | 71 | 2.4 | 0.65 | kinase still bound, per cent of control (CSNK1A1 (human)): 0.5%; kinase still bound, per cent of control (MAP2K5 (human)): 0.05%; kinase still bound, per cent of control (CAMK2B (human)): 19%; kinase still bound, per cent of control [1]: 5.6%; kinase still bound, per cent of control (AURKA (human)): 22%; kinase still bound, per cent of control (BRSK1 (human)): 4.9%; kinase still bound, per cent of control (PRKCH (human)): 1.4%; kinase still bound, per cent of control (SRC (human)): 0.05%; kinase still bound, per cent of control (MAPK11 (human)): 77%; kinase still bound, per cent of control (YSK4 (human)): 0%; kinase still bound, per cent of control (NTRK1 (human)): 0%; kinase still bound, per cent of control (DDR2 (human)): 0%; kinase still bound, per cent of control (TNIK (human)): 0.1%; kinase still bound, per cent of control (MAP2K7 (human)): 80%; kinase still bound, per cent of control (STK24 (human)): 0.3%; kinase still bound, per cent of control (TLK2 (human)): 1.9%; kinase still bound, per cent of control (FGFR4 (human)): 13%; kinase still bound, per cent of control (MAPK7 (human)): 80%; kinase still bound, per cent of control (MYLK3 (human)): 10%
2 | C[C@@H](Oc1cc(-c2cnn(C3CCNCC3)c2)cnc1N)c1c(Cl)ccc(F)c1Cl | 80 | 53 | 0.3 | 56 | 22 | 8.2 | 100 | 100 | 73 | 100 | 96 | 83 | 100 | 66 | 100 | 17 | 0.35 | 100 | 100 | 68 | kinase still bound, per cent of control (CSNK1A1 (human)): 61%; kinase still bound, per cent of control (MAP2K5 (human)): 54%; kinase still bound, per cent of control [1]: 25%; kinase still bound, per cent of control (FER (human)): 2%; kinase still bound, per cent of control (BRSK1 (human)): 48%; kinase still bound, per cent of control (PRKCH (human)): 100%; kinase still bound, per cent of control (SRC (human)): 0.55%; kinase still bound, per cent of control (MAPK11 (human)): 100%; kinase still bound, per cent of control (YSK4 (human)): 2.4%; kinase still bound, per cent of control (NTRK1 (human)): 0.1%; kinase still bound, per cent of control (DDR2 (human)): 0%; kinase still bound, per cent of control (STK3 (human)): 0%; kinase still bound, per cent of control (TNIK (human)): 51%; kinase still bound, per cent of control (MAP2K7 (human)): 83%; kinase still bound, per cent of control (STK24 (human)): 44%; kinase still bound, per cent of control (TLK2 (human)): 100%; kinase still bound, per cent of control (FGFR4 (human)): 98%; kinase still bound, per cent of control (MAPK7 (human)): 0.1%; kinase still bound, per cent of control (MYLK3 (human)): 100%
3 | CCN(CC)CCCCNc1ncc2c(n1)N(C)C(=O)N(c1c(Cl)c(OC)cc(OC)c1Cl)C2 | 100 | 100 | 100 | 100 | 3.3 | 100 | 100 | 100 | 100 | 100 | 100 | 100 | 100 | 100 | 100 | 100 | 26 | 100 | 100 | 100 | kinase still bound, per cent of control (CAMK2B (human)): 100%; kinase still bound, per cent of control (FER (human)): 100%; kinase still bound, per cent of control (AURKA (human)): 100%; kinase still bound, per cent of control (BRSK1 (human)): 100%; kinase still bound, per cent of control (PRKCH (human)): 100%; kinase still bound, per cent of control (SRC (human)): 100%; kinase still bound, per cent of control (MAPK11 (human)): 100%; kinase still bound, per cent of control (YSK4 (human)): 100%; kinase still bound, per cent of control (NTRK1 (human)): 100%; kinase still bound, per cent of control (DDR2 (human)): 30%; kinase still bound, per cent of control (STK3 (human)): 100%; kinase still bound, per cent of control (TNIK (human)): 100%; kinase still bound, per cent of control (STK24 (human)): 13%; kinase still bound, per cent of control (TLK2 (human)): 100%; kinase still bound, per cent of control (FGFR4 (human)): 0.75%; kinase still bound, per cent of control (MAPK7 (human)): 4.1%; kinase still bound, per cent of control (MYLK3 (human)): 100%
